Measurements as given in US11084829B2, “Ubiquitin-specific-processing protease 7 (USP7) modulators and uses thereof” (RAPT THERAPEUTICS, INC., priority 2018, dated 2021).

What follows are molecules tested against USP7 (Homo sapiens, UniProt Q93009) (assay: USP7 inhibitory potency (IC50)).
USP7, sequence (Q93009 whole entry): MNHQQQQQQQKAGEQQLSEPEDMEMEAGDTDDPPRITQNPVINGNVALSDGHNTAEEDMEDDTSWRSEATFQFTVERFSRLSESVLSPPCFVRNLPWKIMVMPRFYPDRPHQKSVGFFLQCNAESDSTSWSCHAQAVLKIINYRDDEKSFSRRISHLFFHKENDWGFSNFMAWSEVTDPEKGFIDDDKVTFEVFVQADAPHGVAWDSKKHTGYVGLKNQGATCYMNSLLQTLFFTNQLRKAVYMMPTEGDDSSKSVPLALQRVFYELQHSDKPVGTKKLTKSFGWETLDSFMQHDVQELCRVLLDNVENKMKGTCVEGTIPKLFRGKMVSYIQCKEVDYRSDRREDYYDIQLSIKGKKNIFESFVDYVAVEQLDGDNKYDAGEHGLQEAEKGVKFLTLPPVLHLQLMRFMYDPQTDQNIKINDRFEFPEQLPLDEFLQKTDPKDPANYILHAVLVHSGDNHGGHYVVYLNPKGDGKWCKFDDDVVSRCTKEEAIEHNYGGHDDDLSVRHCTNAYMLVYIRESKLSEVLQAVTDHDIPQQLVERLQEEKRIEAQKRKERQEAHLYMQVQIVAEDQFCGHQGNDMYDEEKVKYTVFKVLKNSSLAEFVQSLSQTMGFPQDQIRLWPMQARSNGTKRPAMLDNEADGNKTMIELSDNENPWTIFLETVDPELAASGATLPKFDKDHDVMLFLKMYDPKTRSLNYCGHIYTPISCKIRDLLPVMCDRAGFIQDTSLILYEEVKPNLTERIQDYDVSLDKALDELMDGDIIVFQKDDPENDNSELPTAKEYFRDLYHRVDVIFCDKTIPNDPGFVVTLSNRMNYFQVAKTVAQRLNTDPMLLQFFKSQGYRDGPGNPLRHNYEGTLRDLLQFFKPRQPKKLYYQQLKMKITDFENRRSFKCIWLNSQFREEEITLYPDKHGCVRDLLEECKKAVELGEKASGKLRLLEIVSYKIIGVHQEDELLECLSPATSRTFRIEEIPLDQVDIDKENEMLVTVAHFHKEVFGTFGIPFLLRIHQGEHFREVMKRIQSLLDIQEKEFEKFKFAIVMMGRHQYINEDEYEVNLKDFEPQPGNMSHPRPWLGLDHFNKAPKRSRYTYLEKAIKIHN
Type: biochemical
Experimental: Activity for compounds described herein is provided in Table 2, wherein potency levels are provided as follows: (Potency: USP7 IC50: A<0.01 μM; B=0.01-0.1 μM; C=>0.1 μM.
Molecule `Cc1cc(Cl)cc(-c2ccnc3cc(CN4C(=O)C5CC5C4=O)sc23)c1CC1CNCCCO1` (centres unmarked) [Example 118, 3-((7-(2-((1,4-oxazepan-2-yl)methyl)-5-chloro-3-methylphenyl)thieno[3,2-b]pyridin-2-yl)methyl)-3-azabicyclo[3.1.0]hexane-2,4-dione] has an IC50 of less than 10 nM. In the case of `Cc1cc(Cl)cc(-c2ccnc3cc(CN4C(=O)CCC4=O)sc23)c1CC1CNCC(C)(C)O1` (centres unmarked) [Example 119, 1-((7-(5-chloro-2-((6,6-dimethylmorpholin-2-yl)methyl)-3-methylphenyl)thieno[3,2-b]pyridin-2-yl)methyl)pyrrolidine-2,5-dione], the IC50 is reported as less than 10 nM. In the case of `Cc1cc(Cl)cc(-c2ccnc3cc(CN4C(=O)C5CC5C4=O)sc23)c1CC1CNCC(C)(C)O1` (centres unmarked) [Example 120, 3-((7-(5-chloro-2-((6,6-dimethylmorpholin-2-yl)methyl)-3-methylphenyl)thieno[3,2-b]pyridin-2-yl)methyl)-3-azabicyclo[3.1.0]hexane-2,4-dione], the IC50 is reported as less than 10 nM. With `Cc1cc(Cl)cc(-c2ccnc3cc(CN4C(=O)CN(C)C4=O)sc23)c1CC1CNCC(C)(C)O1` (centres unmarked) [Example 121, 3-((7-(5-chloro-2-((6,6-dimethylmorpholin-2-yl)methyl)-3-methylphenyl)thieno[3,2-b]pyridin-2-yl)methyl)-1-methylimidazolidine-2,4-dione] the IC50 was less than 10 nM. `Cc1cc(Cl)cc(-c2ccnc3cc(CN4C(=O)CCCC4C(F)(F)F)sc23)c1CC1CNCCO1` (centres unmarked) [Example 122, 1-((7-(5-chloro-3-methyl-2-(morpholin-2-ylmethyl)phenyl)thieno[3,2-b]pyridin-2-yl)methyl)-6-(trifluoromethyl)piperidin-2-one] was tested, and the IC50 was greater than 100 nM. `Cc1cc(Cl)cc(-c2ccnc3cc(CN4C(=O)C5CC5C4=O)sc23)c1C[C@@H]1CNCCO1` (stereo partly drawn) [Example 123, 3-((7-(5-chloro-3-methyl-2-(((R)-morpholin-2-yl)methyl)phenyl)thieno[3,2-b]pyridin-2-yl)methyl)-3-azabicyclo[3.1.0]hexane-2,4-dione] gave an IC50 of less than 10 nM. In the case of `Cc1cc(Cl)cc(-c2ccnc3c(F)c(CN4C(=O)C5CC5C4=O)sc23)c1C[C@@H]1CNCCO1` (stereo partly drawn) [Example 125, 3-((7-(5-chloro-3-methyl-2-(((R)-morpholin-2-yl)methyl)phenyl)-3-fluorothieno[3,2-b]pyridin-2-yl)methyl)-3-azabicyclo[3.1.0]hexane-2,4-dione], the IC50 is reported as less than 10 nM. In the case of `Cc1cc(Cl)cc(-c2ccnc3cc(CN4C(=O)CN(C)C4=O)sc23)c1C[C@@H]1CNCCO1` [Example 126, (R)-3-((7-(5-chloro-3-methyl-2-(morpholin-2-ylmethyl)phenyl)thieno[3,2-b]pyridin-2-yl)methyl)-1-methylimidazolidine-2,4-dione], the IC50 is reported as less than 10 nM. For `O=C1CCC(=O)N1Cc1cc2nccc(-c3cc(Cl)cc(Cl)c3CC3CNCCO3)c2s1` (centres unmarked) [Example 127, 1-((7-(3,5-dichloro-2-(morpholin-2-ylmethyl)phenyl)thieno[3,2-b]pyridin-2-yl)methyl)pyrrolidine-2,5-dione], the IC50 was less than 10 nM. `CC1(C)CNCC(Cc2c(Cl)cc(Cl)cc2-c2ccnc3cc(CN4C(=O)CCC4=O)sc23)O1` (centres unmarked) [Example 128, 1-((7-(3,5-dichloro-2-((6,6-dimethylmorpholin-2-yl)methyl)phenyl)thieno[3,2-b]pyridin-2-yl)methyl)pyrrolidine-2,5-dione] gave an IC50 of less than 10 nM. `Cc1cc(Cl)cc(-c2ccnc3cc(CN4C(=O)C5CC5C4=O)sc23)c1C[C@@H]1CNCC(C)(C)O1` (stereo partly drawn) [Example 129, 3-((7-(5-chloro-2-(((R)-6,6-dimethylmorpholin-2-yl)methyl)-3-methylphenyl)thieno[3,2-b]pyridin-2-yl)methyl)-3-azabicyclo[3.1.0]hexane-2,4-dione] showed an IC50 of less than 10 nM. In the case of `CN1CCC(=O)N(Cc2cc3nccc(-c4cc(Cl)cc(Cl)c4CC4CNCCO4)c3s2)C1=O` (centres unmarked) [Example 130, 3-((7-(3,5-dichloro-2-(morpholin-2-ylmethyl)phenyl)thieno[3,2-b]pyridin-2-yl)methyl)-1-methyldihydropyrimidine-2,4(1H,3H)-dione], the IC50 is reported as less than 10 nM. Molecule `Cc1cc(Cl)cc(-c2ccnc3cc(CN4C(=O)C5CC5C4=O)sc23)c1CC1CNCC2(CCC2)O1` (centres unmarked) [Example 131, 3-((7-(2-((5-oxa-8-azaspiro[3.5]nonan-6-yl)methyl)-5-chloro-3-methylphenyl)thieno[3,2-b]pyridin-2-yl)methyl)-3-azabicyclo[3.1.0]hexane-2,4-dione] has an IC50 of less than 10 nM. With `Cc1cc(Cl)cc(-c2ccnc3cc(CN4C(=O)C5CC5C4=O)sc23)c1CC1CNCC2(CC2)O1` (centres unmarked) [Example 132, 3-((7-(2-((4-oxa-7-azaspiro[2.5]octan-5-yl)methyl)-5-chloro-3-methylphenyl)thieno[3,2-b]pyridin-2-yl)methyl)-3-azabicyclo[3.1.0]hexane-2,4-dione] the IC50 was less than 10 nM. In the case of `Cc1cc(Cl)cc(-c2ccnc3cc([C@H](C)N4C(=O)C5C(C4=O)C5(C)C)sc23)c1C[C@@H]1CNCCO1` (stereo partly drawn) [Example 133, 3-((S)-1-(7-(5-chloro-3-methyl-2-(((R)-morpholin-2-yl)methyl)phenyl)thieno[3,2-b]pyridin-2-yl)ethyl)-6,6-dimethyl-3-azabicyclo[3.1.0]hexane-2,4-dione], the IC50 is reported as less than 10 nM. Molecule `Cc1cc(Cl)cc(-c2ccnc3cc(CN4C(=O)C5CC5C4=O)sc23)c1C[C@H]1CNCC(C)(C)O1` (stereo partly drawn) [Example 134, 3-((7-(5-chloro-2-(((S)-6,6-dimethylmorpholin-2-yl)methyl)-3-methylphenyl)thieno[3,2-b]pyridin-2-yl)methyl)-3-azabicyclo[3.1.0]hexane-2,4-dione] has an IC50 of 10 to 100 nM. Work on `CN1CCC(=O)N(Cc2cc3nccc(-c4cc(Cl)cc(Cl)c4CC4CNCC(C)(C)O4)c3s2)C1=O` (centres unmarked) [Example 135, 3-((7-(3,5-dichloro-2-((6,6-dimethylmorpholin-2-yl)methyl)phenyl)thieno[3,2-b]pyridin-2-yl)methyl)-1-methyldihydropyrimidine-2,4(1H,3H)-dione] yielded an IC50 of less than 10 nM. Molecule `Cc1cc(Cl)cc(-c2ccnc3cc(CN4C(=O)CCC4=O)sc23)c1C[C@@H]1CNCC(C)(C)O1` [Example 136, (R)-1-((7-(5-chloro-2-((6,6-dimethylmorpholin-2-yl)methyl)-3-methylphenyl)thieno[3,2-b]pyridin-2-yl)methyl)pyrrolidine-2,5-dione] has an IC50 of less than 10 nM. `Cc1cc(Cl)cc(-c2ccnc3cc([C@H](C)N4C(=O)C5CC5C4=O)sc23)c1C[C@@H]1CNCC(C)(C)O1` (stereo partly drawn) [Example 137, 3-((S)-1-(7-(5-chloro-2-(((R)-6,6-dimethylmorpholin-2-yl)methyl)-3-methylphenyl)thieno[3,2-b]pyridin-2-yl)ethyl)-3-azabicyclo[3.1.0]hexane-2,4-dione] gave an IC50 of less than 10 nM. In the case of `Cc1cc(Cl)cc(-c2ccnc3cc(CN4C(=O)C5CC5C4=O)sc23)c1CC1CNCC2(COC2)O1` (centres unmarked) [Example 138, 3-((7-(2-((2,5-dioxa-8-azaspiro[3.5]nonan-6-yl)methyl)-5-chloro-3-methylphenyl)thieno[3,2-b]pyridin-2-yl)methyl)-3-azabicyclo[3.1.0]hexane-2,4-dione], the IC50 is reported as less than 10 nM. `CC1(C)CNCC(Cc2c(Cl)cc(Cl)cc2-c2ccnc3cc(CN4C(=O)C5CC5C4=O)sc23)O1` (centres unmarked) [Example 139, 3-((7-(3,5-dichloro-2-((6,6-dimethylmorpholin-2-yl)methyl)phenyl)thieno[3,2-b]pyridin-2-yl)methyl)-3-azabicyclo[3.1.0]hexane-2,4-dione] was tested, and the IC50 was less than 10 nM. Work on `CC1(C)C2C(=O)N(Cc3cc4nccc(-c5cc(Cl)cc(Cl)c5CC5CNCCO5)c4s3)C(=O)C21` (centres unmarked) [Example 140, 3-((7-(3,5-dichloro-2-(morpholin-2-ylmethyl)phenyl)thieno[3,2-b]pyridin-2-yl)methyl)-6,6-dimethyl-3-azabicyclo[3.1.0]hexane-2,4-dione] yielded an IC50 of less than 10 nM. Work on `CN1CC(=O)N(Cc2cc3nccc(-c4cc(Cl)cc(Cl)c4CC4CNCCO4)c3s2)C1=O` (centres unmarked) [Example 141, 3-((7-(3,5-dichloro-2-(morpholin-2-ylmethyl)phenyl)thieno[3,2-b]pyridin-2-yl)methyl)-1-methylimidazolidine-2,4-dione] yielded an IC50 of less than 10 nM. For `Cn1ccc(=O)n(Cc2cc3nccc(-c4cc(Cl)cc(Cl)c4CC4CNCCO4)c3s2)c1=O` (centres unmarked) [Example 142, 3-((7-(3,5-dichloro-2-(morpholin-2-ylmethyl)phenyl)thieno[3,2-b]pyridin-2-yl)methyl)-1-methylpyrimidine-2,4(1H,3H)-dione], the IC50 was less than 10 nM. For `Cc1cc(Cl)cc(-c2ccnc3cc(CN4C(=O)CCC4=O)sc23)c1CC1CNCC2(CCC2)O1` (centres unmarked) [Example 143, 1-((7-(2-((5-oxa-8-azaspiro[3.5]nonan-6-yl)methyl)-5-chloro-3-methylphenyl)thieno[3,2-b]pyridin-2-yl)methyl)pyrrolidine-2,5-dione], the IC50 was less than 10 nM. Work on `Cc1cc(Cl)cc(-c2ccnc3cc(CN4C(=O)CCN(C)C4=O)sc23)c1CC1CNCC2(CCC2)O1` (centres unmarked) [Example 144, 3-((7-(2-((5-oxa-8-azaspiro[3.5]nonan-6-yl)methyl)-5-chloro-3-methylphenyl)thieno[3,2-b]pyridin-2-yl)methyl)-1-methyldihydropyrimidine-2,4(1H,3H)-dione] yielded an IC50 of less than 10 nM. `Cc1cc(Cl)cc(-c2ccnc3cc(Cn4c(=O)ccn(C)c4=O)sc23)c1CC1CNCC2(CCC2)O1` (centres unmarked) [Example 145, 3-((7-(2-((5-oxa-8-azaspiro[3.5]nonan-6-yl)methyl)-5-chloro-3-methylphenyl)thieno[3,2-b]pyridin-2-yl)methyl)-1-methylpyrimidine-2,4(1H,3H)-dione] showed an IC50 of less than 10 nM. Molecule `Cc1cc(Cl)cc(-c2ccnc3c(F)c(CN4C(=O)C5C(C4=O)C5(C)C)sc23)c1C[C@@H]1CNCCO1` (stereo partly drawn) [Example 146, 3-((7-(5-chloro-3-methyl-2-(((R)-morpholin-2-yl)methyl)phenyl)-3-fluorothieno[3,2-b]pyridin-2-yl)methyl)-6,6-dimethyl-3-azabicyclo[3.1.0]hexane-2,4-dione] has an IC50 of 10 to 100 nM. `Cc1cc(Cl)cc(-c2ccnc3c(F)c(CN4C(=O)CNC4=O)sc23)c1C[C@@H]1CNCCO1` [Example 147, (R)-3-((7-(5-chloro-3-methyl-2-(morpholin-2-ylmethyl)phenyl)-3-fluorothieno[3,2-b]pyridin-2-yl)methyl)imidazolidine-2,4-dione] gave an IC50 of 10 to 100 nM.
